8 compounds from patent publication US8178077B2, “Drug development target protein and target gene, and method of screening” (Reverse Proteomics Research Institute Co., Ltd., priority 2004, dated 2012) can be followed below.

Molecules are shown by their SMILES.

In the assay the target is T1, FLJ39196 clone-derived protein (human neurocalcin δ) (Homo sapiens, UniProt P61601).
T1 construct: A human full-length cDNA clone was expressed as a protein with an N-terminal His tag; His tag (N); made in house; host or cells: Escherichia coli BL21star(DE3)pLysS (pDEST17 Gateway expression plasmid)
Nature of the assay: SEC/MS interaction analysis (size exclusion spin column and mass analysis) with FLJ39196 clone-derived protein. It is filed as binding. From the text: To analyze the interactions between commonly used drugs and proteins expressed from human full-length cDNA clones while keeping both the proteins and the compounds in non-modified, non-immobilized state, size exclusion chromatography (SEC) and mass analysis were used in combination (FIGS. 1, 2). The specific procedures are shown below.
The compound-protein mixture prepared in step 1 was subjected to chromatography using an SEC column, the compound and the protein were separated by SEC, and the compound that interacted with the bound compound or protein contained in the protein fraction was analyzed using a mass analyzer.
Protein concentrations were measured using BCA Protein Assay (PIERCE), in consideration of the purity calculated by SDS-PAGE.
Mass analysis was performed using LCQ DECA XP (Thermoelectron) or Q-TOFmicro (Micromass), equipped with an ESI probe. The LC pump used was Agilent 1100 (Yokogawa Analytical Systems), and the autosampler used was HTC-PAL (CTC Analytics) equipped with a cooling stacker.
In the SEC method using 384-well spin columns, Unifilter 100 (Whatman), packed with 10 μL (dry volume) of Bio-Gel P6 (BIO-RAD) and swollen with milliQ water, was used as the SEC column. 13.3 μL of a protein-free reference standard or a 25 μM protein standard and 0.7 μL of a multiplied liquid comprising 25 μM of each pharmaceutical compound (5% DMSO aqueous solution) were mixed; 9 μL of this mixture was aliquoted into the SEC spin columns. The SEC spin column was mounted on an acetonitrile-aliquoted 384-well U-bottom plate and centrifuged; the SEC spin column filtrate, which is a protein fraction, was retrieved in 50% acetonitrile. The protein precipitate produced by the acetonitrile was removed via centrifugation and filtration for deproteinization; the resulting filtrate was concentrated by centrifugation and re-dissolved in 10 μL of 50% methanol to obtain a mass analysis sample. The mobile phase supplied to the mass analyzer was 0.1% formic acid/50% methanol solution in the positive ion mode, and 0.1% ammonia/50% methanol solution in the negative ion mode; these mobile phases were used at a flow rate of 40 μL/min. 2-μL of mass analysis samples were injected using an autosampler at 2-minute intervals; the mass spectral intensity of the compound was measured to obtain the spectral intensity of the pharmaceutical compound contained in the SEC spin column filtrate (protein fraction eluted from SEC).

The mark [1] stands for this setting: protein 0 μM (protein-free reference), compound 1 μM.
Where [2] appears, read: protein 0 μM (protein-free reference), compound 10 μM.
The mark [3] stands for this setting: protein 0 μM (protein-free reference), compound 100 μM.
The mark [4] stands for this setting: protein 0 μM (protein-free reference), compound 250 μM.
Where [5] appears, read: protein 23.75 μM, compound 1 μM.
The mark [6] stands for this setting: protein 23.75 μM, compound 10 μM.
The mark [7] stands for this setting: protein 23.75 μM, compound 100 μM.
Setting [8] is: protein 23.75 μM, compound 250 μM.
Where [9] appears, read: protein 47.5 μM, compound 10 μM.
The mark [10] stands for this setting: protein 47.5 μM, compound 100 μM.
[11] abbreviates: protein 47.5 μM, compound 250 μM.

Turning to `Clc1ccc(C(OCCN2CCCCC2)c2ccccc2)cc1` (stereo not drawn) [chloperastine], the “spectral intensity of the compound in the SEC spin column filtrate (protein fraction)” value (“spectral intensity … (protein fraction)” for short) was determined as 2920008 under setting [1]; 13165487 under setting [2]; 276180260 under setting [3]; 803023959 under setting [4]; 2972794 under setting [5]; 9288224 under setting [6]. Besides, the “spectral intensity … (protein fraction)” value by setting is: under setting [7], 218420294; under setting [8], 773924506; (protein 47.5 μM, compound 1 μM) 4085344; under setting [9], 18612563; under setting [10], 338617522; under setting [11], 1411536255.
Turning to `CC(C)/N=c1\cc2n(-c3ccc(Cl)cc3)c3ccccc3nc-2cc1Nc1ccc(Cl)cc1` [clofazimine], the “spectral intensity … (protein fraction)” value under setting [1] came out at 1592610; the “spectral intensity … (protein fraction)” value under setting [2] is given as 3306068; the “spectral intensity … (protein fraction)” value under setting [3] is listed as 1781607; the “spectral intensity … (protein fraction)” value under setting [4] worked out at 1742291; the “spectral intensity … (protein fraction)” value under setting [5] is recorded as 2041846; the “spectral intensity … (protein fraction)” value under setting [6] stood at 15886830. The “spectral intensity … (protein fraction)” value by setting is: under setting [7], 138678443; under setting [8], 380425425; (protein 47.5 μM, compound 1 μM) 2399851; under setting [9], 57730302; under setting [10], 312686548; under setting [11], 411373516.
On to `CCc1oc2ccccc2c1C(=O)c1cc(Br)c(O)c(Br)c1` [Benzbromarone], for which the “spectral intensity … (protein fraction)” value under setting [1] is listed as 231212; the “spectral intensity … (protein fraction)” value under setting [2] is recorded as 300847; the “spectral intensity … (protein fraction)” value under setting [3] is 378850; the “spectral intensity … (protein fraction)” value under setting [4] was determined as 461737; the “spectral intensity … (protein fraction)” value under setting [5] worked out at 357666; the “spectral intensity … (protein fraction)” value under setting [6] came out at 1258120. Further, the “spectral intensity … (protein fraction)” value is, setting by setting: under setting [7], 10722991; under setting [8], 19795682; (protein 47.5 μM, compound 1 μM) 412022; under setting [9], 1942184; under setting [10], 29076230; under setting [11], 43413619.
As to `C[C@]12Cc3c[nH]nc3C[C@@H]1CC[C@@H]1[C@@H]2CC[C@@]2(C)[C@H]1CC[C@]2(C)O` [stanozolol], the “spectral intensity … (protein fraction)” value by setting is: under setting [1], 3108300; under setting [2], 2749518; under setting [3], 3830491; under setting [4], 4150230; under setting [5], 3620481; under setting [6], 10223886. Besides, the “spectral intensity … (protein fraction)” value is, setting by setting: under setting [7], 127989356; under setting [8], 194560574; (protein 47.5 μM, compound 1 μM) 3989532; under setting [9], 25533379; under setting [10], 619287498; under setting [11], 778914733.
As to `CC(C)COCC(CN(Cc1ccccc1)c1ccccc1)N1CCCC1` (stereo not drawn) [Bepridil], the “spectral intensity … (protein fraction)” value runs as follows: under setting [1], 9581826; under setting [2], 14048756; under setting [3], 358168208; under setting [4], 1566782176; under setting [5], 7408112; under setting [6], 35655439. For the same compound, the “spectral intensity … (protein fraction)” value is, setting by setting: under setting [7], 771184721; under setting [8], 1841002486; (protein 47.5 μM, compound 1 μM) 7866658; under setting [9], 40680909; under setting [10], 1156825217; under setting [11], 1990085657.
Turning to `CCCCCCCCNC(C)C(O)c1ccc(SC(C)C)cc1` (stereo not drawn) [Suloctidil], the “spectral intensity … (protein fraction)” value by setting is: under setting [1], 6080126; under setting [2], 3684060; under setting [3], 4969067; under setting [4], 9177432; under setting [5], 4318261; under setting [6], 7828150. Also, the “spectral intensity … (protein fraction)” value is, setting by setting: under setting [7], 163940015; under setting [8], 357100809; (protein 47.5 μM, compound 1 μM) 5977944; under setting [9], 7209043; under setting [10], 507388292; under setting [11], 742015343.
With `CN1CCC(=C2c3ccccc3Sc3ccccc32)CC1` [Pimethixene], the “spectral intensity … (protein fraction)” value under setting [1] was 2913965; the “spectral intensity … (protein fraction)” value under setting [2] is listed as 4868887; the “spectral intensity … (protein fraction)” value under setting [3] is 58800844; the “spectral intensity … (protein fraction)” value under setting [4] amounted to 224525009; the “spectral intensity … (protein fraction)” value under setting [5] stood at 2449690; the “spectral intensity … (protein fraction)” value under setting [6] is recorded as 5737072. The “spectral intensity … (protein fraction)” value runs as follows: under setting [7], 121577640; under setting [8], 265475649; (protein 47.5 μM, compound 1 μM) 2762592; under setting [9], 9271060; under setting [10], 197624997; under setting [11], 359356100.
For the compound `CCc1cc2c(s1)N(C)C(=O)CN=C2c1ccccc1Cl` [clotiazepam], the “spectral intensity … (protein fraction)” value is reported as 8089543 under setting [1]; 19826757 under setting [2]; 251469420 under setting [3]; 633414607 under setting [4]; 8254340 under setting [5]; 25038949 under setting [6]. In addition, the “spectral intensity … (protein fraction)” value reads like this: under setting [7], 283452799; under setting [8], 759706893; (protein 47.5 μM, compound 1 μM) 9022620; under setting [9], 60448900; under setting [10], 657940514; under setting [11], 1089985810.
